Assay results from patent publication US6444612B1, “Use of 5-amino-pyrazol-derivatives for combating micro-organisms” (Bayer Aktiengesellschaft, priority 1998, dated 2002).

Test: log P value (physical constant)
Assay type: physicochemical
Details: acidic
In the case of `CCOC(=O)c1c(CC)nn(C)c1NC(=O)Cc1cccc(Cl)c1` [Example 89, 5-(3-chloro-phenyl-acetyl)-amino-3-ethyl4-ethoxycarbonyl-l-methyl-pyrazole], the logP is reported as 2.65.

Same assay, conditions: logP, Table 4
In the case of `CC(=NOCc1c(Cl)cccc1Cl)c1cccc(CC(=O)Nc2c(Cl)c(C)nn2C)c1` [Example 131], the “Physical constant (logP)” value is reported as “logP = 3.91”.
In the case of `Cc1nn(C)c(NC(=O)Cc2ccccc2C(=O)NCc2ccc(Cl)nc2)c1Cl` [Example 134], the “Physical constant (logP)” value is reported as “logP = 1.91”.
In the case of `Cc1cc(C)c(-c2ccc(Cl)cc2)c(C)c1CC(=O)Nc1c(Cl)c(C)nn1C` [Example 147], the “Physical constant (logP)” value is reported as “logP = 4.08”.
With `CCOC(=O)c1c(CC)nn(C)c1NC(=O)C=Cc1ccc(Oc2ccc(C#N)cc2)cc1` [Example 106] the “Physical constant (logP)” value was “logP = 3.16”.
In the case of `CCc1nn(C)c(NC(=O)Cc2cc(-c3ccccc3Cl)c(C)cc2C)c1C#N` [Example 169], the “Physical constant (logP)” value is reported as “logP = 3.51”.
In the case of `Cn1nc(C2CC2)cc1NC(=O)Cc1ccc(Oc2ccc(C#N)cc2)cc1` [Example 109], the “Physical constant (logP)” value is reported as “logP = 2.45”.
For `CCc1nn(C)c(NC(=O)Cc2c(C)cc(C)cc2C)c1C#N` [Example 136], the “Physical constant (logP)” value was “logP = 2.83”.
In the case of `COc1ccccc1-c1cc(C)c(CC(=O)Nc2c(Cl)c(C)nn2C)c(C)c1` [Example 142], the “Physical constant (logP)” value is reported as “logP = 3.25”.
For `CCOC(=O)c1c(CC)nn(C)c1NC(=O)C=Cc1ccc(Oc2ccc([N+](=O)[O-])cc2)cc1` [Example 107], the “Physical constant (logP)” value was “logP = 3.41”.
In the case of `CCc1nn(C)c(NC(=O)Cc2cc(-c3ccc(Cl)cc3)ccc2C)c1C#N` [Example 163], the “Physical constant (logP)” value is reported as “logP = 3.49”.
With `Cc1ccc(-c2ccc(Cl)cc2)c(C)c1CC(=O)Nc1c(Cl)c(C)nn1C` [Example 144] the “Physical constant (logP)” value was “logP = 3.84”.
With `CCc1nn(C)c(NC(=O)Cc2cccc(C(C)=O)c2)c1C#N` [Example 115] the “Physical constant (logP)” value was “logP = 1.71”.
In the case of `C=CCON=C(C)c1cccc(CC(=O)Nc2c(Cl)c(C)nn2C)c1` [Example 132], the “Physical constant (logP)” value is reported as “logP = 2.80”.
In the case of `Cc1ccc(-c2cccc(Cl)c2)cc1CC(=O)Nc1c(Cl)c(C)nn1C` [Example 140], the “Physical constant (logP)” value is reported as “logP = 3.53”.
For `Cc1nn(C)c(NC(=O)Cc2c(F)cc(F)c(F)c2C(F)(F)F)c1C#N` [Example 160], the “Physical constant (logP)” value was “logP = 2.32”.
With `CC(=NOCc1ccccc1)c1cccc(CC(=O)Nc2c(Cl)c(C)nn2C)c1` [Example 126] the “Physical constant (logP)” value was “logP = 3.31”.
With `Cc1cc(C)c(-c2ccccc2Cl)cc1CC(=O)Nc1c(Cl)c(C)nn1C` [Example 145] the “Physical constant (logP)” value was “logP = 3.64”.
In the case of `COC(=O)c1c(C)nn(C)c1NC(=O)Cc1cccc(Br)c1` [Example 135], the “Physical constant (logP)” value is reported as “logP = 2.11”.
With `Cc1ccc(-c2ccc(Cl)cc2)cc1CC(=O)Nc1c(C#N)c(C)nn1C` [Example 151] the “Physical constant (logP)” value was “logP = 3.20”.
With `CCc1nn(C)c(NC(=O)Cc2c(C)cc(-c3cc(C)cc(C)c3)cc2C)c1C#N` [Example 164] the “Physical constant (logP)” value was “logP = 3.96”.
With `CC(=NOCc1ccc(Cl)nc1)c1cccc(CC(=O)Nc2c(Cl)c(C)nn2C)c1` [Example 128] the “Physical constant (logP)” value was “logP = 2.80”.
With `CCc1cc(NC(=O)Cc2ccc(Br)cc2)n(C)n1` [Example 105] the “Physical constant (logP)” value was “logP = 2.13”.
In the case of `CCc1nn(C)c(NC(=O)Cc2ccc(-c3ccccc3)cc2)c1C#N` [Example 162], the “Physical constant (logP)” value is reported as “logP = 2.81”.
With `COc1ccccc1-c1cc(C)c(CC(=O)Nc2c(C#N)c(C)nn2C)c(C)c1` [Example 153] the “Physical constant (logP)” value was “logP = 2.95”.
In the case of `COC(=O)c1c(C)nn(C)c1NC(=O)Cc1cccc(C(C)=O)c1` [Example 116], the “Physical constant (logP)” value is reported as “logP = 1.50”.
In the case of `CCCNC(=O)c1ccccc1CC(=O)Nc1c(Cl)c(C)nn1C` [Example 133], the “Physical constant (logP)” value is reported as “logP = 1.92”.
In the case of `CCc1nn(C)c(NC(=O)Cc2c(C)cc(C)cc2C)c1Cl` [Example 102], the “Physical constant (logP)” value is reported as “logP = 3.01”.
In the case of `Cc1cc(NC(=O)Cc2ccccc2Cl)n(CCC#N)n1` [Example 113], the “Physical constant (logP)” value is reported as “logP = 1.77”.
With `CC(=O)c1cccc(CC(=O)Nc2c(C#N)c(C)nn2C)c1` [Example 114] the “Physical constant (logP)” value was “logP = 1.48”.
